# Experimental data from patent publication US7410974B2, “Halogenated Quinazolinyl nitrofurans as antibacterial agents” (Ulysses Pharmaceutical Products, Inc., priority 2003, dated 2008).
# Read-outs that look alike come from different tables or passages of the source.
# How the values were obtained:
# S. aureus ATCC 29213 = assay: MIC broth microdilution (NCCLS); assay type: cell-based, Staphylococcus aureus
# Procedure: (§1) Minimal Inhibitory Concentration (MIC) Determination. Bacteria (primary strain panel, TABLE 1). Susceptibility tests were performed following the recommendations from the National Committee for Clinical Standards (NCCLS). The MICs were determined by a broth microdilution technique using a final volume of 100 μl of cation-adjusted Mueller Hinton Broth (MHBCA) and a bacterial inoculum of 10^5-10^6 Colony Forming Units (CFU)/ml. The inocula were verified and precisely determined by applying 10-μl drops of 10-fold dilutions onto Triptic Soy Agar plates. The CFU were counted after an incubation of 24 h at 35° C. Any experiment showing an inoculum that was more or less than 10^5-10^6 CFU/ml was rejected. Control antibiotics and test compounds were prepared at a concentration equivalent to 2-fold the highest desired final concentration. Compounds were then diluted directly in the 96-well microtiter plates by serial 2-fold dilutions using a multichannel pipette. Microtiter plates were incubated during 24 h at 35° C. and growth was recorded by using a microtiterplate reader at 650 nm as well as by visual observation. The MIC was defined as the lowest concentration of compound yielding no visible growth. […] Fastidious bacteria. The medium used for Listeria monocytogenes, Neisseria meningitidis, and Campylobacter jejuni was MHBCA containing 2% laked horse blood. The medium used for Haemophilus influenzae and Branhamella (Moraxella) catarrhalis was HTM as recommended by the NCCLS. Cultures of these fastidious bacteria were incubated at 35° C. in a 5% CO2 atmosphere. […] The medium used for Bacteroides fragilis was Wilkins Chalgren broth and growth was allowed under an anaerobic atmosphere at 35° C. for 48 hours.
# S. aureus MRSA COL = assay: MIC broth microdilution (NCCLS); assay type: cell-based, Staphylococcus aureus
# Procedure: as §1, with “hours. […]” for “hours.”
# [1] = tested on: S. epidermidis ATCC 12228; assay: MIC broth microdilution (NCCLS); assay type: cell-based, Staphylococcus epidermidis
# Procedure: as §1
# [2] = tested on: S. saprophyticus ATCC 15305; assay: MIC broth microdilution (NCCLS); assay type: cell-based, Staphylococcus saprophyticus
# Procedure: as §1
# E. faecalis ATCC 29212 = assay: MIC broth microdilution (NCCLS); assay type: cell-based, Enterococcus faecalis
# Procedure: as §1
# E. faecium ATCC 35667 = assay: MIC broth microdilution (NCCLS); assay type: cell-based, Enterococcus faecium
# Procedure: as §1
# E. coli ATCC 25922 = assay: MIC broth microdilution (NCCLS); assay type: cell-based, Escherichia coli
# Procedure: as §1
# S. typhimurium ATCC14028 = assay: MIC broth microdilution (NCCLS); assay type: cell-based, Salmonella typhimurium; conditions: Salmonella enterica; S. typhimurium ATCC14028; read-out: MIC
# Procedure: as §1
# A. baumannii ATCC 19606 = assay: MIC broth microdilution (NCCLS); assay type: cell-based, Acinetobacter baumannii
# Procedure: as §1
# [3] = tested on: Y. enterocolytica ATCC 23715; assay: MIC broth microdilution (NCCLS); assay type: cell-based, Yersinia enterocolytica
# Procedure: as §1
# M. smegmatis ATCC 19420 = assay: MIC broth microdilution (NCCLS), fastidious bacteria; assay type: cell-based, Mycobacterium smegmatis; conditions: Mycolicibacterium smegmatis, ATCC19420, read after 48 hours
# Procedure: as §1
# E. faecium VanA = assay: MIC broth microdilution, antibiotic resistant strain panel; assay type: cell-based; conditions: Enterococcus faecium
# Procedure: as §1
# (§2) Finally, compounds were also tested against populations of various clinical strains (antibiotic resistant strain panel, TABLE 1).
# MRSA strain Sa211c = assay: as above; assay type: cell-based, Staphylococcus aureus; conditions: multi-resistant MRSA strain Sa211c
# Procedure: as §1, §2
# MRSA strain Sa212c = assay: as above; assay type: cell-based, Staphylococcus aureus; conditions: multi-resistant MRSA strain Sa212c
# Procedure: as §1, §2
# MRSA strain Sa220c = assay: as above; assay type: cell-based, Staphylococcus aureus; conditions: multi-resistant MRSA strain Sa220c
# Procedure: as §1, §2
# MRSA strain Sa224c = assay: as above; assay type: cell-based, Staphylococcus aureus; conditions: multi-resistant MRSA strain Sa224c
# Procedure: as §1, §2
# MRSA strain Sa228c = assay: as above; assay type: cell-based, Staphylococcus aureus; conditions: multi-resistant MRSA strain Sa228c
# Procedure: as §1, §2
# MRSA strain Sa248c = assay: as above; assay type: cell-based, Staphylococcus aureus; conditions: multi-resistant MRSA strain Sa248c
# Procedure: as §1, §2
# MRSA strain Sa249c = assay: as above; assay type: cell-based, Staphylococcus aureus; conditions: multi-resistant MRSA strain Sa249c
# Procedure: as §1, §2
# MRSA strain Sa253c = assay: as above; assay type: cell-based, Staphylococcus aureus; conditions: multi-resistant MRSA strain Sa253c
# Procedure: as §1, §2
# [4] = tested on: S. saprophyticus ATCC 15305; assay: Minimal Bactericidal Concentration (MBC); assay type: cell-based; conditions: Staphylococcus saprophyticus, ATCC15305
# Procedure: Minimal Bactericidal Concentration (MBC). After the microtiter plates were read for the determination of the MIC, a 10-μl sample of each clear well (at least 5 wells without visible growth) was applied onto TSA plates for viable counts determination.
# Petri dishes were incubated at 35° C. for exactly 24 h and bacterial colonies were counted.
# MRSA strain Sa234c = assay: MIC broth microdilution, antibiotic resistant strain panel; assay type: cell-based, Staphylococcus aureus; conditions: multi-resistant MRSA strain Sa234c
# Procedure: as §1, §2
# [5] = Staphylococcus aureus, ATCC29213, S. aureus ATCC 29213, read-out: MIC
# [6] = Staphylococcus aureus, MRSA, S. aureus MRSA COL, read-out: MIC
# [7] = Staphylococcus epidermidis, ATCC12228, S. epidermidis ATCC 12228, read-out: MIC
# [8] = Staphylococcus saprophyticus, ATCC15305, S. saprophyticus ATCC 15305, read-out: MIC
# [9] = Enterococcus faecalis, ATCC29212, E. faecalis ATCC 29212, read-out: MIC
# [10] = Enterococcus faecium, ATCC35667, E. faecium ATCC 35667, read-out: MIC
# [11] = Staphylococcus aureus, read-out: MIC
molecule,measurement,setting,value
NC(=O)N/N=C/c1ccc([N+](=O)[O-])o1 [Nitrofurazone],MIC,S. aureus ATCC 29213; [5],16 µg/mL
same,MIC,S. aureus MRSA COL; [6],8 to 16 µg/mL
same,MIC,[1]; [7],8 µg/mL
same,MIC,[2]; [8],8 µg/mL
same,MIC,E. faecalis ATCC 29212; [9],64 µg/mL
same,MIC,E. faecium ATCC 35667; E. faecium ATCC 35667,>64 µg/mL
same,MIC,E. faecium ATCC 35667; [10],128 µg/mL
same,MIC,"E. coli ATCC 25922; Escherichia coli, ATCC25922, E. coli ATCC 25922 (Reference), read-out: MIC",8 to 16 µg/mL
same,MIC,S. typhimurium ATCC14028,8 µg/mL
same,MIC,"A. baumannii ATCC 19606; Acinetobacter baumannii, ATCC19606, read-out: MIC",32 µg/mL
same,MIC,"[3]; Yersinia, ATCC23715, read-out: MIC",64 µg/mL
same,MIC,M. smegmatis ATCC 19420,64 µg/mL
same,MIC,"E. faecium VanA; multi-resistant E. faecium VanA, read-out: MIC",64 µg/mL
Cc1onc(-c2ccccc2)c1C(=O)N[C@@H]1C(=O)N2[C@@H]1SC(C)(C)[C@@H]2C(=O)O [Oxacillin],MIC,S. aureus ATCC 29213; [5],0.12 to 0.25 µg/mL
same,MIC,"S. aureus MRSA COL; Staphylococcus aureus, MRSA",> 128 µg/mL
same,MIC,S. aureus MRSA COL; [6],512 µg/mL
same,MIC,[1]; [7],0.12 µg/mL
same,MIC,[2]; [8],1 µg/mL
same,MIC,E. faecalis ATCC 29212; [9],8 to 16 µg/mL
same,MIC,E. faecium ATCC 35667; [10],32 µg/mL
same,MIC,MRSA strain Sa211c; [11],16 to 32 µg/mL
same,MIC,MRSA strain Sa212c; [11],16 µg/mL
same,MIC,MRSA strain Sa220c; [11],8 to 16 µg/mL
same,MIC,MRSA strain Sa224c; [11],32 to 64 µg/mL
same,MIC,MRSA strain Sa228c; [11],128 µg/mL
same,MIC,MRSA strain Sa248c; [11],512 µg/mL
same,MIC,MRSA strain Sa249c; [11],512 µg/mL
same,MIC,MRSA strain Sa253c; [11],1020 µg/mL
CN[C@H](CC(C)C)C(=O)N[C@H]1C(=O)N[C@@H](CC(N)=O)C(=O)N[C@H]2C(=O)N[C@H]3C(=O)N[C@H](C(=O)N[C@H](C(=O)O)c4cc(O)cc(O)c4-c4cc3ccc4O)[C@H](O)c3ccc(c(Cl)c3)Oc3cc2cc(c3O[C@@H]2O[C@H](CO)[C@@H](O)[C@H](O)[C@H]2O[C@H]2C[C@](C)(N)[C@H](O)[C@H](C)O2)Oc2ccc(cc2Cl)[C@H]1O [Vancomycin],MIC,"S. aureus ATCC 29213; Staphylococcus aureus, ATCC29213",0.5 to 2 µg/mL
same,MIC,"S. aureus MRSA COL; Staphylococcus aureus, MRSA",1 to 2 µg/mL
same,MIC,"[1]; Staphylococcus epidermidis, ATCC12228",1 to 2 µg/mL
same,MIC,"[2]; Staphylococcus saprophyticus, ATCC15305",1 µg/mL
same,MIC,"E. faecalis ATCC 29212; Enterococcus faecalis, ATCC29212",2 µg/mL
same,MIC,"E. faecium ATCC 35667; Enterococcus faecium, ATCC35667",0.5 µg/mL
same,MIC,E. faecium VanA,> 128 µg/mL
same,MBC,[4],1 µg/mL
Gentamicin,MIC,S. aureus ATCC 29213; S. aureus ATCC 29213,0.5 to 2 µg/mL
same,MIC,S. aureus MRSA COL; S. aureus MRSA COL,0.5 µg/mL
same,MIC,[1]; S. epidermidis ATCC 12228,0.06 to 0.25 µg/mL
same,MIC,[2]; S. saprophyticus ATCC 15305,0.06 µg/mL
same,MIC,E. faecalis ATCC 29212; E. faecalis ATCC 29212,4 to 16 µg/mL
same,MIC,E. faecium ATCC 35667; E. faecium ATCC 35667,4 to 16 µg/mL
same,MIC,E. coli ATCC 25922; E. coli ATCC 25922 (Reference),0.5 to 2 µg/mL
same,MIC,A. baumannii ATCC 19606,32 µg/mL
same,MIC,[3],2 µg/mL
same,MIC,MRSA strain Sa211c,1 µg/mL
same,MIC,MRSA strain Sa212c,0.25 µg/mL
same,MIC,MRSA strain Sa220c,0.5 µg/mL
same,MIC,MRSA strain Sa224c,0.25 µg/mL
same,MIC,MRSA strain Sa228c,32 µg/mL
same,MIC,MRSA strain Sa234c,1 µg/mL
same,MIC,MRSA strain Sa248c,>128 µg/mL
same,MIC,MRSA strain Sa249c,>128 µg/mL
same,MIC,MRSA strain Sa253c,>128 µg/mL
